PubChem BioAssay AID504416 (Johns Hopkins Ion Channel Center, 2011)
Active and inactive are the calls of the source.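 Rule for the calls: active = raises or lowers thallium flux through KCNQ4 potassium channels at some tested dose, with a fitted dose response curve; inactive = no effect at any dose or no curve.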

Biological target: Potassium voltage-gated channel subfamily KQT member 4 (Homo sapiens) (UniProt P56696)
Experiment: KCNQ4 thallium flux concentration-response – KCNQ4-expressing cells, selectivity assay for KCNQ2 activator project, dose response (AID 504416)
Details: FluxOR thallium flux fluorescence

Chain of Potassium voltage-gated channel subfamily KQT member 4 (Homo sapiens) (P56696 whole entry, looked up): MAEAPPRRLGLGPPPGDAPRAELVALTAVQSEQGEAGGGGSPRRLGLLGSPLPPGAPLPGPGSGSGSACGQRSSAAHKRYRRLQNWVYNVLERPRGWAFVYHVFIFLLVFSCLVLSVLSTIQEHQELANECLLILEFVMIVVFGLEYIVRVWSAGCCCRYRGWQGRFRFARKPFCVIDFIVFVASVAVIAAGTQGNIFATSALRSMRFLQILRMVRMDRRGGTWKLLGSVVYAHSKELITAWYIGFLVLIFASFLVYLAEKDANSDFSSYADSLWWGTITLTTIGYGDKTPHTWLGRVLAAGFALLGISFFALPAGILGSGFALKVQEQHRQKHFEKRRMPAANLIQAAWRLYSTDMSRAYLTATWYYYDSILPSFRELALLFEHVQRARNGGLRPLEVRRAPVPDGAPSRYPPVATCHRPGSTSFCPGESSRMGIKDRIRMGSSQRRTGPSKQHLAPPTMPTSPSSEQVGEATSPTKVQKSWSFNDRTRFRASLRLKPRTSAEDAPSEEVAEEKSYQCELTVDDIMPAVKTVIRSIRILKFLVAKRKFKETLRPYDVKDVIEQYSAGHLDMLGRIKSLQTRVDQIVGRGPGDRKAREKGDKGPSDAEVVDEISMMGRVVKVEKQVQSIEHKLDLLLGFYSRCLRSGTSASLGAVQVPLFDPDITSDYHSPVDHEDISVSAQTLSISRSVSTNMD

Row | potentiation (at 30 µM (top of the series)) | EC50 | SMILES
1 | inactive | – | Cc1cccc(C)c1NC(=O)C1CC2CCC1C2 (configuration not stated)
2 | – | 2400 nM | Cc1cc(C)c(NC(=O)C2CC3CCC2C3)c(C)c1 (configuration not stated)
